Source: patent publication US12257264B2, “Combination therapy for HIV with adenosine derivative and capsid inhibitors” (Brii Biosciences, Inc., priority 2021, dated 2025)

Test: Plasma exposures following IV infusion alone or in combination to Sprague-Dawley rats
Conditions: for concentration at 0.25 h: 0.250 hrs; for concentration at 0.5 h: 0.500 hrs
Experimental: The pharmacokinetics of EFdA and prodrug formula 4-A, as well as lenacapavir were studied in rats after IV infusion administration alone or in combination at a dose of 1.0 mg/kg each.
Formulations: The prodrugs and lenacapavir were formulated alone or in combination as solutions at 1.0 mg/mL each in 20% […], 10% Solutol aqueous solution within 0.5 hour prior to dose.
Dose Administration and Sample Collection: The in-life phase of this study was conducted at the WuXi Apptec (WuXi) at Shanghai, China in accordance with the WuXi Institutional Animal Care and Use Committee (IACUC) standard animal procedures along with the IACUC guidelines that are in compliance with the Animal Welfare Act, the Guide for the Care and Use of Laboratory Animals. and was approved by the IACUA Committee. Male Sprague-Dawley rats (0.262+/−0.019 kg) were used for the studies. Each drug was administered as a single dose by 30-min IV infusion (1 ml/kg) alone or in combination. Plasma samples were collected at 0 (pre-dose), 5, 10, 15 and 30 min, 1, 2, 4, 7, 12 and 24 h post-dose. Blood (approximately 0.1 mL) was processed immediately for plasma by centrifugation at 3,200 g at 4° C. for 10 min within half an hour of collection. Plasma samples were frozen and maintained at −70° C. until analyzed. To stabilize the prodrug at the sample collection and subsequent analysis, the following stabilizing reagents were added to the blood collection K2EDTA tubes on wet ice prior to sample collection: for each 100 mL of blood, 10 mL of premade inhibitor cocktail consists of 600 mM Citric Acid, 400 mM PMSF, 400 mM NaF, and 400 mM Dichlorvos.
Determination of EFdA and Prodrugs in plasma: Briefly, plasma (20 μL) was mixed with 100 l acetonitrile to precipitate protein. Consistent with sample collection procedure, the same cocktail protocol was also added to stabilize the prodrug in the standard and QC samples.
Bioanalysis: A Sciex API-6500 Plus triplequadrupole mass spectrometer coupled with a Waters Acquity UPLC system (Framingham, MA 01701) was used for quantitative analysis of plasma samples. The column was a Waters HSS T3 column (2.1×50 mm, 1.8 micrometer). The mobile phases used were: A, 0.1% formic acid in water; B, 0.1% formic acid in acetonitrile. For the analysis of EFdA and prodrugs in plasma, the flow rate was 0.6 mL/min with a total run time of 2.0 min. […] Detection of the prodrug and EFdA were achieved using positive ion electrospray mass spectroscopic mode using unit resolution mode. Multiple reaction monitoring (MRM) modes were used to quantify both prodrug and EFdA, e.g. the MRM transition for EFdA was 294.0-154.2 Da, and the transition for prodrug 4-A was 449.3-164.9 Da. For the analysis of lenacapavir in plasma, the flow rate was 0.7 mL/min with a total run time of 1.5 min. The HPLC gradient was initiated at 95% A/5% B for 0.50 min, followed by linear gradient increase to […] over the next 0.2 min; the gradient was subsequently maintained at 100% of mobile B over the next 0.7 min before ramping down to 95% mobile phase A within the following 0.1 min. Detection of lenacapavir was achieved using positive ion electrospray mass spectroscopic mode using unit resolution mode. Multiple reaction monitoring (MRM) modes were used to quantify lenacapavir, e.g. the MRM transition for lenacapavir was 968.1-869.4 Da. Peak areas were integrated by the Sciex program Analyst®, version 1.6.3, operating on a Windows 7 computer where concentrations were determined by a weighted (1/x2) linear regression of peak area ratios (peak area of EFdA/peak area of corresponding IS) versus the nominal concentrations of the plasma calibration standards. Calculations were performed on unrounded numbers. Overall, Analyst® determined the precision and accuracy for the calibration standards and QC samples.

[1] = male, Sprague-Dawley, rat, in vivo, 1 mg/kg, Lenacapavir Concentrations in Rat Plasma When Dosed Alone, Lenacapavir IV infusion 1.0 mg/kg alone, individual animals
[2] = male, Sprague-Dawley, rat, in vivo, 1 mg/kg, Lenacapavir Concentrations in Rat Plasma When Dosed Alone, Lenacapavir IV infusion 1.0 mg/kg alone, Mean
[3] = male, Sprague-Dawley, rat, in vivo, Lenacapavir Concentrations in Rat Plasma When Dosed with Prodrug formula 4-A, Lenacapavir IV infusion 1.0 mg/kg with Prodrug formula 4-A, Mean
[4] = male, Sprague-Dawley, rat, in vivo, iv, 1 mg/kg

SMILES: CC(C)(C#Cc1ccc(-c2ccc(Cl)c3c(NS(C)(=O)=O)nn(CC(F)(F)F)c23)c([C@H](Cc2cc(F)cc(F)c2)NC(=O)Cn2nc(C(F)(F)F)c3c2C(F)(F)[C@@H]2C[C@H]32)n1)S(C)(=O)=O [Lenacapavir, reference compound]
- concentration at 0.25 h [1]: 0.796 µg/mL
- concentration at 0.5 h [2]: 0.789 µg/mL
- concentration at 0.5 h [1]: 0.98 µg/mL
- concentration at 1 h [2]: 0.222 µg/mL
- concentration at 1 h [1]: 0.261 µg/mL
- concentration at 2 h [2]: 0.15 µg/mL
- concentration at 2 h [1]: 0.181 µg/mL
- concentration at 4 h [2]: 0.156 µg/mL
- concentration at 4 h [1]: 0.171 µg/mL
- concentration at 7 h [2]: 0.138 µg/mL
- concentration at 12 h [2]: 0.117 µg/mL
- concentration at 12 h [1]: 0.145 µg/mL
- concentration at 24 h [2]: 0.136 µg/mL
- concentration at 24 h [1]: 0.141 µg/mL
- concentration at 72 h [2]: 0.0696 µg/mL
- concentration at 0.083 h (male, Sprague-Dawley, rat, in vivo, Lenacapavir Concentrations in Rat Plasma When Dosed with Prodrug formula 4-A, Lenacapavir IV infusion 1.0 mg/kg with Prodrug formula 4-A, 0.0830 hrs, Mean): 0.413 µg/mL
- concentration at 0.167 h (male, Sprague-Dawley, rat, in vivo, Lenacapavir Concentrations in Rat Plasma When Dosed with Prodrug formula 4-A, Lenacapavir IV infusion 1.0 mg/kg with Prodrug formula 4-A, 0.167 hrs, Mean): 0.507 µg/mL
- concentration at 0.25 h [3]: 0.59 µg/mL
- concentration at 0.5 h [3]: 0.645 µg/mL
- concentration at 1 h [3]: 0.162 µg/mL
- concentration at 2 h [3]: 0.127 µg/mL
- concentration at 4 h [3]: 0.0935 µg/mL
- concentration at 7 h [3]: 0.093 µg/mL
- concentration at 12 h [3]: 0.128 µg/mL
- concentration at 24 h [3]: 0.133 µg/mL
- concentration at 72 h [3]: 0.0833 µg/mL
- AUC [4]: 7.98 µg·h/mL
- Cmax [4]: 0.903 µg/mL
- Pharmacokinetic profile of lenacapavir on co-administration of prodrugs, e.g. formula 4-A (rats, IV infusion): not affected
